The text below walks through data of patent publication US10294202B2, “Pyrrolidinones as herbicides” (FMC Corporation, priority 2013, dated 2019).

Common to all, as to experiment: Test A pre-/postemergence herbicide test
For one assay, the system named is crabgrass, large. It is filed as in vivo, Digitaria sanguinalis. The source says: (§1) Seeds of plant species selected from bamyardgrass (Echinochloa crus-galli), kochia (Kochia scoparia), ragweed (common ragweed, Ambrosia elatior), ryegrass, Italian (Italian ryegrass, Lolium multiflorum), crabgrass, large (large crabgrass Digitaria sanguinalis), giant foxtail (Setaria faberii), morningglory (Ipomoea spp.), pigweed (Amaranthus retroflexus), velvetleaf (Abutilon theophrasti), wheat (Triticum aestivum), and corn (Zea mays) were planted into a blend of loam soil and sand and treated preemergence with a directed soil spray using test chemicals formulated in a non-phytotoxic solvent mixture which included a surfactant. At the same time, plants selected from these crop and weed species and also blackgrass (Alopecurus myosuroides), and galium (catchweed bedstraw, Galium aparine) were planted in pots containing the same blend of loam soil and sand and treated with postemergence applications of test chemicals formulated in the same manner. Plants ranged in height from 2 to 10 cm and were in the one- to two-leaf stage for the postemergence treatment. Treated plants and untreated controls were maintained in a greenhouse for approximately 10 days, after which time all treated plants were compared to untreated controls and visually evaluated for injury. Plant response ratings, summarized in Table A, are based on a 0 to 100 scale where 0 is no effect and 100 is complete control. A dash (-) response means no test result.

The subject of another assay is giant foxtail. Format: in vivo, Setaria faberii.
Text: as §1

The test system of a further assay is barnyardgrass. Format: in vivo, Echinochloa crus-galli.
Text: as §1

The next assay has as its system pigweed. It is filed as in vivo, Amaranthus retroflexus.
Text: as §1

Another assay relates to corn. Format: in vivo, Zea mays.
Text: as §1

Another assay relates to wheat. Format: in vivo, Triticum aestivum.
Text: as §1

In the next assay the test system is velvetleaf. It is filed as in vivo, Abutilon theophrasti.
Text: as §1

The next assay deals with morningglory. Format: in vivo, Ipomoea spp.
Text: as §1

Setting [1] is: Postemergence, 125 g ai/ha, 0 to 100 scale, 0 no effect, 100 complete control.
Where [2] appears, read: Postemergence, 500 g ai/ha, 0 to 100 scale (0 no effect, 100 complete control).
The mark [3] stands for this setting: Preemergence, 125 g ai/ha, visual rating on 0 to 100 scale (0 no effect, 100 complete control).
Where [4] appears, read: preemergence, 500 g ai/ha, 0 to 100 scale.
Where [5] appears, read: Postemergence, 1000 g ai/ha, 0 to 100 scale (0 no effect, 100 complete control).
Where [6] appears, read: Preemergence, 1000 g ai/ha, visual rating on 0 to 100 scale (0 no effect, 100 complete control), approx. 10 days.
[7] abbreviates: preemergence, 1000 g ai/ha, 0 to 100 scale.
The mark [8] stands for this setting: preemergence, 1000 g ai/ha, 0 to 100 scale (0 no effect, 100 complete control).

Take `N#Cc1ccccc1NC(=O)C1C(=O)NCC1c1ccccc1` (racemic) [Compound 86]: the “Plant response rating, Crabgrass, Large” value turned out to be 0 with crabgrass, large (setting [1]); 60 in the assay with crabgrass, large (setting [2]); 80 with crabgrass, large (setting [4]). Further, in the assay on crabgrass, large (setting [3]), the “Crabgrass, Large plant response rating” value came out at 60. Moreover, the “Plant response rating, Foxtail, Giant” value was determined as 0 in the assay with giant foxtail (setting [1]), 10 in the assay with giant foxtail (setting [2]) and 60 with giant foxtail (setting [4]). The “Foxtail, Giant plant response rating” value with giant foxtail (setting [3]) is 20. In addition, the “Plant response rating, Barnyardgrass” value with barnyardgrass (setting [1]) worked out at 0; in the assay on barnyardgrass (setting [2]), 20; with barnyardgrass (preemergence, 500 g ai/ha, 0 to 100 scale (0 no effect, 100 complete control)), 40. Also, the “Barnyardgrass plant response rating” value with barnyardgrass (setting [3]) is given as 0. For the same molecule, the “Plant response rating, Pigweed” value in the assay on pigweed (setting [1]), with pigweed (setting [2]) and in the assay on pigweed (setting [4]) was 0 throughout. Besides, the “Pigweed plant response rating” value in the assay on pigweed (setting [3]) was found to be 0. Also, the “Plant response rating, Corn” value in the assay on corn (setting [1]) is recorded as 0; in the assay on corn (setting [2]), 0; in the assay on corn (setting [4]) it was 20. The “Corn plant response rating” value with corn (setting [3]) is given as 0. Besides, the “Plant response rating, Wheat” value in the assay on wheat (setting [1]), in the assay with wheat (setting [2]) and with wheat (setting [4]) was 0 each time. The “Wheat plant response rating” value with wheat (setting [3]) was found to be 0. Besides, the “Plant response rating, Velvetleaf” value in the assay with velvetleaf (setting [1]), with velvetleaf (setting [2]) and in the assay with velvetleaf (setting [4]) was 0 each time. For the same molecule, in the assay on velvetleaf (setting [3]), the “Velvetleaf plant response rating” value worked out at 0. The “Plant response rating, Morningglory” value in the assay with morningglory (setting [1]), with morningglory (setting [2]) and with morningglory (setting [4]) was 0 in each case. The “Morningglory plant response rating” value in the assay on morningglory (setting [3]) is on record as 0.

With `O=C1NCC(c2ccc(F)c(F)c2)C1C(=O)Nc1cccc(=O)[nH]1` (racemic) [Compound 96], the “Plant response rating, Crabgrass, Large” value in the assay on crabgrass, large (setting [5]) is given as 0; in the assay with crabgrass, large (setting [6]), 0. Moreover, the “Plant response rating, Foxtail, Giant” value in the assay on giant foxtail (setting [5]) and in the assay on giant foxtail (setting [6]) was 0 throughout. For the same molecule, the “Plant response rating, Barnyardgrass” value with barnyardgrass (setting [5]) and in the assay with barnyardgrass (setting [6]) was 0 throughout. The “Plant response rating, Pigweed” value in the assay on pigweed (setting [5]) and with pigweed (setting [6]) was 0 in each case. The “Plant response rating, Corn” value in the assay with corn (setting [5]) and in the assay with corn (setting [6]) was 0 in each case. In addition, the “Plant response rating, Wheat” value in the assay with wheat (setting [5]) and with wheat (setting [6]) was 0 each time. The “Plant response rating, Velvetleaf” value with velvetleaf (setting [5]) and with velvetleaf (setting [6]) was 0 throughout. Also, the “Plant response rating, Morningglory” value with morningglory (setting [5]) and in the assay with morningglory (setting [6]) was 0 in each case.

Turning to `Cn1ccc(C2CNC(=O)C2C(=O)Nc2ccccc2C(F)(F)F)n1` (racemic) [Compound 191], the “Plant response rating, Crabgrass, Large” value in the assay on crabgrass, large (setting [5]) is listed as 0; in the assay with crabgrass, large (setting [7]), 0. Besides, the “Plant response rating, Foxtail, Giant” value with giant foxtail (setting [5]) and in the assay with giant foxtail (setting [7]) was 0 in each case. In addition, the “Plant response rating, Barnyardgrass” value with barnyardgrass (setting [5]) and in the assay on barnyardgrass (setting [8]) was 0 throughout. For the same molecule, the “Plant response rating, Pigweed” value in the assay on pigweed (setting [5]) and in the assay with pigweed (setting [7]) was 0 in each case. The “Plant response rating, Corn” value in the assay on corn (setting [5]) and in the assay on corn (setting [7]) was 0 in each case. For the same molecule, the “Plant response rating, Wheat” value in the assay with wheat (setting [5]) and in the assay with wheat (setting [7]) was 0 each time. In addition, the “Plant response rating, Velvetleaf” value in the assay on velvetleaf (setting [5]) and with velvetleaf (setting [7]) was 0 throughout. The “Plant response rating, Morningglory” value in the assay on morningglory (setting [5]) and in the assay on morningglory (setting [7]) was 0 each time.

Consider `Cn1ccc(C2CNC(=O)C2C(=O)Nc2cccc(F)c2F)n1` (racemic) [Compound 192], for which the “Plant response rating, Crabgrass, Large” value in the assay on crabgrass, large (setting [5]) stood at 0; with crabgrass, large (setting [7]) it was 0. In addition, the “Plant response rating, Foxtail, Giant” value in the assay with giant foxtail (setting [5]) and in the assay on giant foxtail (setting [7]) was 0 each time. Besides, the “Plant response rating, Barnyardgrass” value with barnyardgrass (setting [5]) and in the assay with barnyardgrass (setting [8]) was 0 in each case. The “Plant response rating, Pigweed” value with pigweed (setting [5]) and in the assay on pigweed (setting [7]) was 0 each time. For the same molecule, the “Plant response rating, Corn” value with corn (setting [5]) and in the assay with corn (setting [7]) was 0 throughout. Moreover, the “Plant response rating, Wheat” value in the assay with wheat (setting [5]) and in the assay on wheat (setting [7]) was 0 in each case. Also, the “Plant response rating, Velvetleaf” value in the assay with velvetleaf (setting [5]) and with velvetleaf (setting [7]) was 0 in each case. Moreover, the “Plant response rating, Morningglory” value in the assay with morningglory (setting [5]) and in the assay with morningglory (setting [7]) was 0 in each case.

`Cn1cc(C2CNC(=O)C2C(=O)Nc2cccc(F)c2F)cn1` (racemic) [Compound 253]: the “Plant response rating, Crabgrass, Large” value with crabgrass, large (setting [5]) is given as 20; with crabgrass, large (setting [7]), 0. Moreover, the “Plant response rating, Foxtail, Giant” value in the assay with giant foxtail (setting [5]) came out at 20; in the assay on giant foxtail (setting [7]) it was 0. The “Plant response rating, Barnyardgrass” value in the assay with barnyardgrass (setting [5]) and with barnyardgrass (setting [8]) was 0 each time. For the same molecule, the “Plant response rating, Pigweed” value in the assay on pigweed (setting [5]) and with pigweed (setting [7]) was 0 in each case. The “Plant response rating, Corn” value in the assay with corn (setting [5]) and in the assay with corn (setting [7]) was 0 throughout. The “Plant response rating, Wheat” value in the assay on wheat (setting [5]) and in the assay on wheat (setting [7]) was 0 throughout. The “Plant response rating, Velvetleaf” value with velvetleaf (setting [5]) and in the assay with velvetleaf (setting [7]) was 0 throughout. The “Plant response rating, Morningglory” value was 10 with morningglory (setting [5]) and 0 with morningglory (setting [7]).

Consider `Cn1cc(C2CNC(=O)C2C(=O)Nc2ccccc2F)cn1` (racemic) [Compound 254], for which the “Plant response rating, Crabgrass, Large” value in the assay with crabgrass, large (setting [5]) is recorded as 0; with crabgrass, large (setting [7]) it was 70. In addition, the “Plant response rating, Foxtail, Giant” value turned out to be 0 in the assay with giant foxtail (setting [5]) and 40 in the assay on giant foxtail (setting [7]). Also, the “Plant response rating, Barnyardgrass” value with barnyardgrass (setting [5]) and with barnyardgrass (setting [8]) was 0 each time. For the same molecule, the “Plant response rating, Pigweed” value with pigweed (setting [5]) and with pigweed (setting [7]) was 0 each time. In addition, the “Plant response rating, Corn” value in the assay with corn (setting [5]) and with corn (setting [7]) was 0 in each case. The “Plant response rating, Wheat” value with wheat (setting [5]) and in the assay on wheat (setting [7]) was 0 each time. In addition, the “Plant response rating, Velvetleaf” value in the assay on velvetleaf (setting [5]) and with velvetleaf (setting [7]) was 0 throughout. For the same molecule, the “Plant response rating, Morningglory” value with morningglory (setting [5]) and in the assay on morningglory (setting [7]) was 0 throughout.

In the case of `O=C1NCC(c2ccc(F)c(F)c2)C1C(=O)N(O)c1ccccc1` (stereo not drawn) [Compound 71], the “Plant response rating, Crabgrass, Large” value is listed as 80 in the assay on crabgrass, large (setting [5]) and 80 in the assay on crabgrass, large (setting [6]). Moreover, the “Plant response rating, Foxtail, Giant” value in the assay on giant foxtail (setting [5]) and in the assay with giant foxtail (setting [6]) was 60 throughout. The “Plant response rating, Barnyardgrass” value in the assay with barnyardgrass (setting [5]) and with barnyardgrass (setting [6]) was 50 each time. For the same molecule, the “Plant response rating, Pigweed” value with pigweed (setting [5]) and with pigweed (setting [6]) was 0 throughout. For the same molecule, the “Plant response rating, Corn” value with corn (setting [5]) and with corn (setting [6]) was 0 each time. Also, the “Plant response rating, Wheat” value with wheat (setting [5]) and in the assay with wheat (setting [6]) was 0 each time. The “Plant response rating, Velvetleaf” value in the assay on velvetleaf (setting [5]) and in the assay with velvetleaf (setting [6]) was 0 in each case.
